# Test: Crystal form conversion of Form D suspended and stirred in solvent at room temperature for seven days
# Type: physicochemical
# Excerpt: The anhydrate crystal form (Form D) can be converted to other crystal forms under suitable conditions. […] 6, 2006).
smiles,measurement,setting,value
"C=Cc1cc(O)cc2nc(-c3ccc(O)c(F)c3)oc12 [Form D, 2-(3-fluoro-4-hydroxyphenyl)-7-vinyl-1,3-benzoxazol-5-ol]",crystal form conversion (polymorphic stability),suspended and stirred in ethanol or acetone at room temperature for seven days,another anhydrate crystal form is obtained
same,crystal form conversion (polymorphic stability),suspended and stirred in methanol at room temperature for seven days,another anhydrate crystal form is obtained
same,crystal form conversion (polymorphic stability),suspended and stirred in water at room temperature for seven days,most of the anhydrate crystal form is converted to a hydrate crystal form

# Reference: patent US20090239920A1, “PHARMACEUTICAL FORMULATIONS OF AN ANHYDRATE CRYSTAL FORM OF 2-(3-FLUORO-4-HYDROXYPHENYL)-7-VINYL-1,3-BENZOXAZOL-5-OL” (WYETH, priority 2006, published 2009)
